The target of data set [1] is T1, glucosylceramide synthase (GCS) (Canis lupus familiaris, UniProt A0A8I3MXG6).
T1 construct: endogenous in cells; host or cells: parental (wild-type) MDCKII cells
T1 sequence (A0A8I3MXG6 1-394): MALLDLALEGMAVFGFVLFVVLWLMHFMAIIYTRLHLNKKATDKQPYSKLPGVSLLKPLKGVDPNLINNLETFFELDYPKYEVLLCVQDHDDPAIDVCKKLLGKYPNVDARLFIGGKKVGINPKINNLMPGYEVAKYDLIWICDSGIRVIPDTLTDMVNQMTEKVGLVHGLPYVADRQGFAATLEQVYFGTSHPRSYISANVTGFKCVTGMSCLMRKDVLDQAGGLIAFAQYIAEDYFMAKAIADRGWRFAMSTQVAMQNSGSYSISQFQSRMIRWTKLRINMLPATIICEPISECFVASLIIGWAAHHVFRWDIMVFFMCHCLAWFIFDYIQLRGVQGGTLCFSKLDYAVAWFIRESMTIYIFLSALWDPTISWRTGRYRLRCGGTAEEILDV
In words: GCS inhibition in MDCKII cells (inhibition of GlcCer production in whole wild-type MDCKII cells). The format is cell-based. Particulars: read-out: MDCK IC50.
Protocol: GCS Inhibition in MDCKII Cells
Parental (WT-)MDCKII cells were routinely maintained in medium consisting of Opti-MEM/F12 (1:1), 5% FBS, 100 U/mL of penicillin, 100 μg/mL streptomycin and 200 mM L-glutamine. MDCKII cells were newly thawed from frozen ampules every two months.
The inhibitor-ethanol solutions then were diluted 50× into 2 mM delipidated bovine serum albumin-phosphate buffered saline solution to make water-soluble glycosphingolipid inhibitor-bovine serum albumin complexes. The inhibitor-bovine serum album complexes were sterile-filtered and stored at −20° C. Prior to use, portions of the inhibitor-bovine serum albumin complexes were further diluted with Opti-F12 to make treatment solutions. Equal amounts of bovine serum albumin and ethanol were added into the control cultures. Cells (5×10^5) were seeded into 10-cm culture dishes containing 10 ml of Opti-F12 with 5% FBS. After 24 hours, the medium was replaced with fresh serum-free Opti-F12 medium, and cells were exposed to candidate GCS inhibitors at concentrations of 0, 1, 3, 10, 30, 100 and 300 nM for 24 hours.
Briefly, cells were washed with ice-cold phosphate buffered saline, fixed by methanol, and collected with rubber scraper. Chloroform was then added to yield a theoretical ratio of chloroform:methanol:water at 1:2:0.8 (v/v/v) to form a mono-phase. Cell debris and proteins were removed by centrifugation at 2200×g for 30 min. The supernatants were portioned by adding chloroform and 0.9% NaCl. […] A portion of purified glycosphingolipids normalized to 100 nmol of total phospholipids was analyzed by high performance thin layer chromatography. The thin layer chromatography separations were processed twice. The plate pretreated with 1% sodium borate was first developed in a solvent system consisting of chloroform/methanol (98/2, v/v). After air drying, the plate was then developed in a solvent system containing chloroform/methanol/water (70/30/4, v/v/v). The levels of glucosylceramide were detected by charring with 8% cupric sulfate in 8% phosphoric acid, and quantified by densitometric scanning using ImageJ, NIH Image.

A short description of data set [2]: Half-life when incubated with mouse liver microsomes (MLM). Conditions: read-out: MLM T½. The format is in vitro ADME. Here is the method:
^a Inhibition of GlcCer production in whole wild-type MDCKII cells. ^bHalf-life when incubated with mouse liver microsomes. ^cAreas under the drug concentration curve after single IP dose in mice (10 mg/kg). ^dReduction in brain levels of glucosylceramide in CBE mice after 14 days of qd dosing with test drug administered IP. NC=no change.

Data set [3] in a line: IP PK: areas under the drug concentration curve after single IP dose in mice. The format is in vivo. Conditions: mice, single IP dose 10 mg/kg; for AUC: mouse, plasma.
[4] abbreviates: mouse, liver microsomes, Table 2, Cl vs H comparison.
Setting [5] is: inhibition of GlcCer production in whole wild-type MDCKII cells, 24 hours.
[6] abbreviates: half-life when incubated with mouse liver microsomes.

Molecules are shown by their SMILES. Like-named read-outs stand apart in the source and are kept apart here. A value given as a limit tells only on which side of the number the result lay.

In general, IC50 refers to the concentration that gives 50% inhibition. In the case of `O=C(CC1Cc2ccccc2C1)N[C@H](CN1CCCC1)[C@H](O)c1ccccc1` [Comp Ex. 1, reference compound], in data set [1] (Table 2, Cl vs H comparison), the half-maximal inhibitory concentration (IC50) came to 6.5 nM. The half-life in data set [2] (setting [4]) was determined as 15 min.

As for `CC(C)(C)Oc1ccc([C@@H](O)[C@@H](CN2CCCC2)NC(=O)CC2Cc3ccccc3C2)cc1` [Comp. Ex. 2, reference compound], in data set [1] (Table 2, Cl vs H comparison), the half-inhibitory concentration (IC50) was 2.5 nM. In addition, the half-life in data set [2] (setting [4]) came to 120 min.

On to `O=C(CC1Cc2ccccc2C1)N[C@H](CN1CCCC1)[C@H](O)c1ccc(OC(F)(F)F)cc1` [Comp. Ex. 3, reference compound], for which the half-life in data set [2] (setting [4]) was 251 min.

Consider `O=C(CC1Cc2ccccc2C1)N[C@H](CN1CCCC1)[C@H](O)c1ccc(OC2CC2)cc1` [Comp. Ex. 4, reference compound], for which the IC50 in data set [1] (Table 2, Cl vs H comparison) amounted to 1.7 nM. Moreover, the half-life in data set [2] (setting [4]) amounted to 3.8 min.

Turning to `CC1(Oc2ccc([C@@H](O)[C@@H](CN3CCCC3)NC(=O)CC3Cc4ccccc4C3)cc2)COC1` [Comp. Ex. 5, reference compound], the IC50 in data set [1] (Table 2, Cl vs H comparison) came to 7.9 nM. Also, the half-life in data set [2] (setting [4]) is 24 min.

With `CC1(C)COc2cc([C@@H](O)[C@@H](CN3CCCC3)NC(=O)CC3Cc4ccccc4C3)ccc2O1` [Comp. Ex. 7, reference compound], in data set [1] (Table 2, Cl vs H comparison), the half-inhibitory concentration (IC50) was found to be 1 nM. In data set [2] (setting [4]), the half-life worked out at 29 min.

For `O=C(CC1Cc2ccccc2C1)N[C@H](CN1CCCC1)[C@H](O)c1ccc(C2CC2)cc1` [Comp. Ex. 8, reference compound], in data set [1] (Table 2, Cl vs H comparison), the concentration for half-maximal inhibition (IC50) was 3.9 nM. Also, the half-life in data set [2] (setting [4]) came to 56 min.

In the case of `O=C(CC1Cc2ccccc2C1)N[C@H](CN1CCCC1)[C@H](O)c1ccc(OC(F)F)cc1` [Comp. Ex. 9, reference compound], the half-life in data set [2] (setting [4]) came to 38 min.

Turning to `COc1ccccc1[C@@H](O)[C@@H](CN1CCCC1)NC(=O)CC1Cc2ccccc2C1` [Comp. Ex. 19, reference compound], in data set [1] (Table 2, Cl vs H comparison), the IC50 turned out to be 4.8 nM.

In the case of `O=C(CC1Cc2ccccc2C1)N[C@H](CN1CCCC1)[C@H](O)c1ccc(OC(F)(F)F)c(Cl)c1` [Example 3, N-((1R,2R)-1-(3-chloro-4-(trifluoromethoxy)phenyl)-1-hydroxy-3-(pyrrolidin-1-yl)propan-2-yl)-2-(2,3-dihydro-1H-inden-2-yl)acetamide], the IC50 in data set [1] (setting [5]) came out at 4.1 nM. Moreover, in data set [2] (setting [6]), the half-life is 316 min.

The term AUC denotes concentration integrated over time. High values mean more exposure, low ones less exposure. In the case of `O=C(N[C@H](CN1CCCC1)[C@H](O)c1cccc(Cl)c1)OC1Cc2ccccc2C1` [Example 6, 2,3-dihydro-1H-inden-2-yl ((1R,2R)-1-(3-chlorophenyl)-1-hydroxy-3-(pyrrolidin-1-yl)propan-2-yl)carbamate], the 50% inhibitory concentration (IC50) in data set [1] (setting [5]) worked out at 3.8 nM. Further, in data set [3], the “IP PK Brain AUC” value is 997 ng·h/mL and the AUC turned out to be 401 ng·h/mL. The half-life in data set [2] (setting [6]) amounted to 18 min.

As to `O=C(CC1Cc2ccccc2C1)N[C@H](CN1CCCC1)[C@H](O)c1ccc(C2CC2)c(Cl)c1` [Example 8, N-((1R,2R)-1-(3-chloro-4-cyclopropylphenyl)-1-hydroxy-3-(pyrrolidin-1-yl)propan-2-yl)-2-(2,3-dihydro-1H-inden-2-yl)acetamide], the half-inhibitory concentration (IC50) in data set [1] (setting [5]) amounted to 0.54 nM. Also, the half-life in data set [2] (setting [6]) turned out to be 91 min.

For the compound `O=C(CC1Cc2ccccc2C1)N[C@H](CN1CC[C@@H](F)C1)[C@H](O)c1cccc(Cl)c1` [Example 10, N-((1R,2R)-1-(3-chlorophenyl)-3-((R)-3-fluoropyrrolidin-1-yl)-1-hyroxypropan-2-yl)-2-(2,3-dihydro-1H-inden-2-yl)acetamide], the IC50 in data set [1] (setting [5]) was 8.7 nM. Also, in data set [3], the “IP PK Brain AUC” value was 940 ng·h/mL and the exposure (AUC) came to 289 ng·h/mL. Also, the half-life in data set [2] (setting [6]) was determined as 12 min.

For `O=C(CC1Cc2ccccc2C1)N[C@H](CN1CC[C@@H](F)C1)[C@H](O)c1ccc(OC2CC2)c(Cl)c1` [Example 11, N-((1R,2R)-1-(3-chloro-4-cyclopropoxyphenyl)-3-((R)-3-fluoropyrrolidin-1-yl)-1-hydroxypropan-2-yl)-2-(2,3-dihydro-1H-inden-2-yl)acetamide], in data set [1] (setting [5]), the IC50 stood at 0.63 nM. In data set [3], the “IP PK Brain AUC” value is 178 ng·h/mL and the AUC amounted to 397 ng·h/mL. Moreover, the half-life in data set [2] (setting [6]) was found to be 5.5 min.

In the case of `O=C(CC1Cc2ccccc2C1)N[C@H](CN1CCCC1)[C@H](O)c1ccc(OC(F)F)c(Cl)c1` [Example 13, N-((1R,2R)-1-(3-chloro-4-(difluoromethoxy)phenyl)-1-hydroxy-3-(pyrrolidin-1-yl)propan-2-yl)-2-(2,3-dihydro-1H-inden-2-yl)acetamide], the half-inhibitory concentration (IC50) in data set [1] (setting [5]) worked out at 0.71 nM. In addition, in data set [3], the “IP PK Brain AUC” value is 216 ng·h/mL and the AUC was 535 ng·h/mL. Further, in data set [2] (setting [6]), the half-life was determined as 187 min.

In the case of `CC1(OC(=O)N[C@H](CN2CCCC2)[C@H](O)c2cccc(Cl)c2)Cc2ccccc2C1` [Example 14, 2-methyl-2,3-dihydro-1H-inden-2-yl ((1R,2R)-1-(3-chlorophenyl)-1-hydroxy-3-(pyrrolidin-1-yl)propan-2-yl)carbamate], in data set [1] (setting [5]), the IC50 came to 9.2 nM. The compound also showed an AUC in data set [3] of 324 ng·h/mL.

Regarding `O=C(CC1Cc2ccccc2C1)N[C@H](CN1CCC1)[C@H](O)c1cccc(Cl)c1` [Example 16, N-((1R,2R)-3-(azetidin-1-yl)-1-(3-chlorophenyl)-1-hydroxypropan-2-yl)-2-(2,3-dihydro-1H-inden-2-yl)acetamide], the IC50 in data set [1] (setting [5]) was found to be 6.8 nM. Further, in data set [2] (setting [6]), the half-life stood at 54 min.

On to `COc1c(Cl)cccc1[C@@H](O)[C@@H](CN1CCCC1)NC(=O)CC1Cc2ccccc2C1` [Example 18, N-((1R,2R)-1-(3-chloro-2-methoxyphenyl)-1-hydroxy-3-(pyrrolidin-1-yl)propan-2-yl)-2-(2,3-dihydro-1H-inden-2-yl)acetamide], for which, in data set [1] (setting [5]), the 50% inhibitory concentration (IC50) is 81.5 nM.

On to `COc1ccc(Cl)cc1[C@@H](O)[C@@H](CN1CCCC1)NC(=O)CC1Cc2ccccc2C1` [Example 19, N-((1R,2R)-1-(5-chloro-2-methoxyphenyl)-1-hydroxy-3-(pyrrolidin-1-yl)propan-2-yl)-2-(2,3-dihydro-1H-inden-2-yl)acetamide], for which the IC50 in data set [1] (setting [5]) amounted to 0.43 nM. Also, the half-life in data set [2] (setting [6]) came to 7.1 min.

Take `O=C(CC1Cc2ccccc2C1)N[C@H](CN1CCCC1)[C@H](O)c1cc(Cl)cc(OC2CC2)c1` [Example 20, N-((1R,2R)-1-(3-chloro-5-cyclopropoxyphenyl)-1-hydroxy-3-(pyrrolidin-1-yl)propan-2-yl)-2-(2,3-dihydro-1H-inden-2-yl)acetamide]: the IC50 in data set [1] (setting [5]) was 2.1 nM. In addition, the half-life in data set [2] (setting [6]) came out at 6.5 min.

As for `CC(C)(C)c1ccc([C@@H](O)[C@@H](CN2CCCC2)NC(=O)CC2Cc3ccccc3C2)cc1Cl` [Example 21, N-((1R,2R)-1-(4-(tert-butyl)-3-chlorophenyl)-1-hydroxy-3-(pyrrolidin-1-yl)propan-2-yl)-2-(2,3-dihydro-1H-inden-2-yl)acetamide], the IC50 in data set [1] (setting [5]) worked out at 24.1 nM. Besides, the half-life in data set [2] (setting [6]) was above 1000 min.

On to `O=C(CC1Cc2ccccc2C1)N[C@H](CN1CCCC1)[C@H](O)c1cccc(Cl)c1F` [Example 22, N-((1R,2R)-1-(3-chloro-2-fluorophenyl)-1-hydroxy-3-(pyrrolidin-1-yl)propan-2-yl)-2-(2,3-dihydro-1H-inden-2-yl)acetamide], for which the IC50 in data set [1] (setting [5]) is 141 nM. Moreover, in data set [2] (setting [6]), the half-life turned out to be 4.6 min.

The values are drawn from patent US11220479B2, “Glucosylceramide synthase inhibitors and therapeutic methods using the same” (THE REGENTS OF THE UNIVERSITY OF MICHIGAN, priority 2019, dated 2022).
